As a reminder, the IC50 is the concentration at which inhibition is half-maximal.

Drawing on PMC3475094, “Identification Of Small Molecule TRABID Deubiquitinase Inhibitors By Computation-Based Virtual Screen” (BMC Chemical Biology, 2012), this text covers IC50 for 2 compounds.

In this assay the target is T1, TRABID (Homo sapiens, UniProt Q9UGI0).
T1 construct: gene ZRANB1; full length TRABID
T1 sequence (Q9UGI0 1-708): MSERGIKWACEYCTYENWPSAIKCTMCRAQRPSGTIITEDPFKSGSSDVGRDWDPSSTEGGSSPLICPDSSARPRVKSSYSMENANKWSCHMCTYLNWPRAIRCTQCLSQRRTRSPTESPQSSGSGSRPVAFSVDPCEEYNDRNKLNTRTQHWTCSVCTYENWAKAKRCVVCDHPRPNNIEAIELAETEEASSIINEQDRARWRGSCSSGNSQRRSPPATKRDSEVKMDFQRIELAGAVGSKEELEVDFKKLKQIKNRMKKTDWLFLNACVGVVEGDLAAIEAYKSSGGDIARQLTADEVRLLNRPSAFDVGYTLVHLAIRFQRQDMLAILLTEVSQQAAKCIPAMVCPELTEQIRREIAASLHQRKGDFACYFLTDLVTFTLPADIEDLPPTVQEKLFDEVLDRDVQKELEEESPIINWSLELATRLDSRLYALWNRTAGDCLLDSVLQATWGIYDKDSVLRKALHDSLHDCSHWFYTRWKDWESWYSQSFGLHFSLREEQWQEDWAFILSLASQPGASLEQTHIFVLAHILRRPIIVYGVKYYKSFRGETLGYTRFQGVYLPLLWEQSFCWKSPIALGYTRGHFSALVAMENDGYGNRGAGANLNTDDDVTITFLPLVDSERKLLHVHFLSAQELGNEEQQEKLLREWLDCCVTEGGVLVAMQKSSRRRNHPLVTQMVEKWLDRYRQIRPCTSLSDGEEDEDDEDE
In words: Hexa-K63 ubiquitin cleavage assay, Western blot quantification. In kind it is biochemical.

Take `Oc1cc(Br)c(O)cc1Br` [compound 133363, NSC133363]: half-maximal inhibition (IC50) was put at 7.17 µM.
Next, `Cc1cc(O)c(Cl)cc1O` [compound 29034, NSC29034]: 7.54 µM.
